Assay results as given in ChEMBL document CHEMBL4706484, “Apigenin-rivastigmine hybrids as multi-target-directed liagnds for the treatment of Alzheimer's disease” (Eur J Med Chem, 2020).
pIC50: −log10 of the molar value. Activity calls are given as the source filed them. No cut-off for these calls is given here.

How the values were obtained:
Mus musculus [1] = assay: Cognitive enhancing effect in scopolamine-induced Kunming mouse model of memory impairment assessed as effect on total arm entries at 6 mg/kg by Y-maze test; format: functional, organism-based
Acetylcholinesterase [2] = biological target: T1, Acetylcholinesterase (Homo sapiens, UniProt P22303); assay: Pseudo-irreversible inhibition of human erythrocytes AChE assessed as enzyme recovery activity at 0.1 times IC50 measured at 120 mins using diluted compound relative to control; format: tissue-based; parameters: scale not given: the % may be the effect or the level left; conditions: Erythrocyte
T1 sequence (P22303 whole entry): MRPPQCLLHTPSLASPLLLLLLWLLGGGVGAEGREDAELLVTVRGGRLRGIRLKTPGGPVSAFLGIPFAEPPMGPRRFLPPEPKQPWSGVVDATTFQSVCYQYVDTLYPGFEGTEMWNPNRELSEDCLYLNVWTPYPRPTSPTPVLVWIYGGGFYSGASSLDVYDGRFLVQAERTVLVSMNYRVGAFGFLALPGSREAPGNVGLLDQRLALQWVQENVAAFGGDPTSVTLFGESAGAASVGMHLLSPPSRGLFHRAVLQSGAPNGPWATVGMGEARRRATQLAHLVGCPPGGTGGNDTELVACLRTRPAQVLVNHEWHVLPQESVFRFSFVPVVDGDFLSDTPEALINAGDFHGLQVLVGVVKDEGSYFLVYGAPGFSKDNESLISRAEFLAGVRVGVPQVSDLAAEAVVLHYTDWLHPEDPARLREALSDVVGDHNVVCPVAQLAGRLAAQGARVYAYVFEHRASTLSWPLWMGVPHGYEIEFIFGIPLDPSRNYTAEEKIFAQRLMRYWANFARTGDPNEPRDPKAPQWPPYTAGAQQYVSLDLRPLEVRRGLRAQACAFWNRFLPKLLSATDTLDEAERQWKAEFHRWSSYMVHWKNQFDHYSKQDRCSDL

Mus musculus [3] = assay: Reversal of scopolamine-induced Kunming mouse model of memory impairment assessed as spontaneous alteration at 6 mg/kg by Y-maze test (reference value: 41.6 %); format: functional
Cholinesterase [4] = biological target: T2, Cholinesterase (Homo sapiens, UniProt P06276); assay: Pseudo-irreversible inhibition of human serum BChE assessed as enzyme recovery activity at 0.1 times IC50 measured immediately using diluted compound; format: cell-free; parameters: scale not given: the % may be the effect or the level left
T2 sequence (P06276 whole entry): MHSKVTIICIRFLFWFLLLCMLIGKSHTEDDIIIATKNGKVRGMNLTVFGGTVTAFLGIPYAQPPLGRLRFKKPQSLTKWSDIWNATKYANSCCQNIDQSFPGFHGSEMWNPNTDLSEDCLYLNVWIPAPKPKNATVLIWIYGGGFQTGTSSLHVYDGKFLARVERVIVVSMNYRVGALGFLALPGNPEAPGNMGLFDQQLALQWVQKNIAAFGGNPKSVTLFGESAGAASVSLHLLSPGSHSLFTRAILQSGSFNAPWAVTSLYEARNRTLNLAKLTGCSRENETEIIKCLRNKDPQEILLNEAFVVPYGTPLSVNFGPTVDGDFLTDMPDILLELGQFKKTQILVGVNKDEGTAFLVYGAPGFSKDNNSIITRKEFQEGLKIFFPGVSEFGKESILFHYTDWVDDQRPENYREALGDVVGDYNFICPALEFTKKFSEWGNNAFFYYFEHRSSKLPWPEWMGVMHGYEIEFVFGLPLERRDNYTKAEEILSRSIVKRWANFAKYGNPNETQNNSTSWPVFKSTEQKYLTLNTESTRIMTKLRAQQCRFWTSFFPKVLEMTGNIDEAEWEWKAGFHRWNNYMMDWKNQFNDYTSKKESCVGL

Cholinesterase [5] = biological target: T2, Cholinesterase; assay: Pseudo-irreversible inhibition of human serum BChE assessed as enzyme recovery activity at 0.1 times IC50 using diluted compound relative to control; format: cell-free; parameters: scale not given: the % may be the effect or the level left
Cholinesterase [6] = biological target: T2, Cholinesterase; assay: Pseudo-irreversible inhibition of human serum BChE assessed as enzyme recovery activity at IC50 using diluted compound relative to control; format: cell-free; parameters: scale not given: the % may be the effect or the level left
Cholinesterase [7] = biological target: T2, Cholinesterase; assay: Pseudo-irreversible inhibition of human serum BChE assessed as enzyme recovery activity at IC50 using undiluted compound relative to control; format: cell-free; parameters: scale not given: the % may be the effect or the level left
Danio rerio [8] = species on record: Danio rerio; assay: Antialzheimer activity against 3 dpf zebrafish model of AlCl3-induced AD assessed as change in motility distance at 8 uM (reference value: 5204 mm); format: functional
Danio rerio [9] = species on record: Danio rerio; assay: Antialzheimer activity against 3 dpf zebrafish model of AlCl3-induced AD assessed as efficacy on motility distance at 8 uM relative to control; format: functional
Danio rerio [10] = species on record: Danio rerio; assay: Antialzheimer activity against 3 dpf zebrafish model of AlCl3-induced AD assessed as efficacy on speed change at 8 uM relative to control; format: functional
Danio rerio [11] = species on record: Danio rerio; assay: Antialzheimer activity against 3 dpf zebrafish model of AlCl3-induced AD assessed as motility by measuring change in speed at 8 uM (reference value: 1.05 mm/s); format: functional
Acetylcholinesterase [12] = biological target: T3, Acetylcholinesterase (Rattus norvegicus, UniProt P37136); assay: Inhibition of rat cortex AChE using acetylthiocholine iodide as substrate measured after 15 mins by Ellman's method; format: tissue-based
T3 sequence (P37136 whole entry): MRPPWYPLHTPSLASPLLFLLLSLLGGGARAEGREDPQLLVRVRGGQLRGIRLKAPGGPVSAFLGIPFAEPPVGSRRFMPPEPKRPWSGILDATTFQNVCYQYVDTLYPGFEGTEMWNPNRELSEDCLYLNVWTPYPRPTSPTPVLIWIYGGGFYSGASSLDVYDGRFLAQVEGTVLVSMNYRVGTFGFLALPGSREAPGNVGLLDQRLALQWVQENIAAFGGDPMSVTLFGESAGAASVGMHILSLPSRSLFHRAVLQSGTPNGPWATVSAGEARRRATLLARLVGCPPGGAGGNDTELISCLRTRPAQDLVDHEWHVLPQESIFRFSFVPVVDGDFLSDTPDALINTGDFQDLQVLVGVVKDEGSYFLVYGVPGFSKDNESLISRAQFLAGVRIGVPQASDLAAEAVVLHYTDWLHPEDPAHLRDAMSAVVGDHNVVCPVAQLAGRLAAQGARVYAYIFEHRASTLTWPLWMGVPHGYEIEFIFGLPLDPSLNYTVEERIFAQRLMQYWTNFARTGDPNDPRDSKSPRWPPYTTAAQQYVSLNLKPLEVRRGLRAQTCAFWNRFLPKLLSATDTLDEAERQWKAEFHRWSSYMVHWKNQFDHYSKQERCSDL

[13] = Antioxidant activity of compound assessed as trolox equivalent antioxidant capacity by ORAC-FL assay; format: functional
Butyrylcholinesterase = Butyrylcholinesterase (Rattus norvegicus, UniProt Q9JKC1); assay: Inhibition of rat serum BChE using acetylthiocholine iodide as substrate measured after 15 mins by Ellman's method; format: cell-free
Sequence of Butyrylcholinesterase (Q9JKC1 whole entry): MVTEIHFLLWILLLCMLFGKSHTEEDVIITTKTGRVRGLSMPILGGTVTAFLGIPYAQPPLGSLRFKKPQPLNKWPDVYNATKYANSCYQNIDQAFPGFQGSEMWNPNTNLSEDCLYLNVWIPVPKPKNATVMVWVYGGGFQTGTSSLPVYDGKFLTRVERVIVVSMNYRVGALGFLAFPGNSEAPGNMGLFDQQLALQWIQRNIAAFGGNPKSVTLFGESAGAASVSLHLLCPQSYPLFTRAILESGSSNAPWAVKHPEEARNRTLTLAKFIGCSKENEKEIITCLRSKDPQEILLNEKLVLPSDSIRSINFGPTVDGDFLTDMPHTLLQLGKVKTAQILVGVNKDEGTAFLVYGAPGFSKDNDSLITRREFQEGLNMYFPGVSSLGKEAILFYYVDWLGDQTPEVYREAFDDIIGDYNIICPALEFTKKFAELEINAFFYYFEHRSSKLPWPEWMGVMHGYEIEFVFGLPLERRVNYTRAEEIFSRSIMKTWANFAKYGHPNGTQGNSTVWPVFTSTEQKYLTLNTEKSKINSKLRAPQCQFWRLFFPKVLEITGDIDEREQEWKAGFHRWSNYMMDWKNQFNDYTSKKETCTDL

[14] = biological target: Amyloid-beta precursor protein (Homo sapiens) (UniProt P05067); assay: Inhibition of self-induced amyloid beta (1 to 42) (unknown origin) aggregation at 25 uM by ThT fluorescence assay relative to control
Sequence of Amyloid-beta precursor protein (Homo sapiens) (P05067 whole entry): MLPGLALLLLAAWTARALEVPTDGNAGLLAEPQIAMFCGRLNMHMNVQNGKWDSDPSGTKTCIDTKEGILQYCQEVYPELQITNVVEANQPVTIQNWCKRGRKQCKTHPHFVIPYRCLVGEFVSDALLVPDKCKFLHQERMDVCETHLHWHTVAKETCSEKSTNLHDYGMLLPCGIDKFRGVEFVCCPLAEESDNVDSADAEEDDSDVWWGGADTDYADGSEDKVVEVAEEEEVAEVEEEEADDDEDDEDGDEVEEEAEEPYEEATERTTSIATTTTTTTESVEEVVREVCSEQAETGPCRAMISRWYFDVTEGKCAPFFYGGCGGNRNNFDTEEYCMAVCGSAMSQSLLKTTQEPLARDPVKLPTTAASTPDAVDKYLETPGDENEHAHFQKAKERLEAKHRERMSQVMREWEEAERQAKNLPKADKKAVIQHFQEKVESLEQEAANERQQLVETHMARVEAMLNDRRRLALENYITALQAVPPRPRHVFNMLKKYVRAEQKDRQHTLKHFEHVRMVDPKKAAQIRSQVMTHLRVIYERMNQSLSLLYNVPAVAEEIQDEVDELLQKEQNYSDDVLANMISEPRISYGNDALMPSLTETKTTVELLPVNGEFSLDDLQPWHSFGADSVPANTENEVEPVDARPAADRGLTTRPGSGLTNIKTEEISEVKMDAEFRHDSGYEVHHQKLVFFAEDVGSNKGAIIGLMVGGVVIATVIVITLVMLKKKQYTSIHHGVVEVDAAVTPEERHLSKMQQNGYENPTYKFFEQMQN

[15] = Permeability of the compound in PBS/EtOH (70:30) at 100 ug/ml by PAMPA-BBB assay; format: ADME; conditions: dose 100 µg/ml, read-out: permeability
PC-12 [16] = assay: Neuroprotective activity against H2O2-induced cell injury in rat PC-12 cells assessed as increase in cell viability causing decrease in LDH content preincubated for 2 hrs followed by H2O2 addition and measured after 24 hrs by LDH assay; format: functional, cell-based; conditions: dose 5-10 µM, time 26.0 hrs
PC-12 [17] = assay: Neuroprotective activity against H2O2-induced cell injury in rat PC12 cells assessed as cell viability preincubated for 2 hrs followed by H2O2 addition and measured after 24 hrs by MTT assay (reference value: 53.8 %); format: functional; conditions: time 26 hrs
L02 = assay: Hepatoprotective activity H2O2-induced cell injury in human L02 cells assessed as cell viability at 10 uM measured after 48 hrs by MTT assay (reference value: 56.89 %); format: functional; conditions: read-out: Activity
[18] = biological target: Amyloid-beta precursor protein (Homo sapiens) (UniProt P05067); assay: Inhibition of self-induced amyloid beta (1 to 42) (unknown origin) aggregation at 25 uM measured after 24 hrs by TEM analysis
[19] = Cytotoxicity against human L02 cells assessed as cell viability at 25 uM measured after 72 hrs by MTT assay relative to control; format: cell-based; conditions: read-out: Activity
PC-12 [20] = assay: Cytotoxicity against rat PC-12 cells assessed as reduction in cell viability <= 100 uM measured after 48 hrs by MTT assay; format: cell-based; conditions: pc-12, 48 h
[21] = biological target: Amyloid-beta precursor protein (Homo sapiens) (UniProt P05067); assay: Disaggregation of self-induced amyloid beta (1 to 42) (unknown origin) preformed fibrils at 25 uM measured after 48 hrs by TEM analysis
Acetylcholinesterase [22] = biological target: T1, Acetylcholinesterase; assay: Inhibition of human erythrocytes AChE using acetylthiocholine iodide as substrate measured after 15 mins by Ellman's method; format: tissue-based, Erythrocyte
[23] = Drug metabolism in rat liver microsomes assessed as metabolite formation by UPLC-MS/MS analysis; format: ADME, Microsome
[24] = biological target: Amyloid-beta precursor protein (Homo sapiens) (UniProt P05067); assay: Disaggregation of self-induced amyloid beta (1 to 42) (unknown origin) preformed fibrils at 25 uM by ThT fluorescence assay relative to control
[25] = Cytotoxicity against human L02 cells assessed as cell viability at 12.5 uM measured after 72 hrs by MTT assay relative to control; format: cell-based; conditions: read-out: Activity
[26] = Cytotoxicity against human L02 cells assessed as cell viability at 6.25 uM measured after 72 hrs by MTT assay relative to control; format: cell-based; conditions: read-out: Activity
[27] = Drug metabolism in rat intestine assessed as metabolite formation by UPLC-MS/MS analysis; format: ADME, tissue-based
[28] = Metal chelating activity assessed as Fe2+-compound complex formation at 37.5 uM in presence of 37.5 uM FeSO4 by UV-Vis spectrophotometric analysis
Cholinesterase [29] = biological target: T2, Cholinesterase; assay: Inhibition of human serum BChE using acetylthiocholine iodide as substrate measured after 15 mins by Ellman's method; format: cell-free
[30] = Metal chelating activity assessed as Cu2+-compound complex formation at 37.5 uM in presence of 37.5 uM CuCl2 by UV-Vis spectroscopic analysis
[31] = Metal chelating activity assessed as Zn2+-compound complex formation at 37.5 uM in presence of 37.5 uM ZnCl2 by UV-Vis spectrophotometric analysis
[32] = Metal chelating activity assessed as Al3+-compound complex formation at 37.5 uM in presence of 37.5 uM AlCl3 by UV-Vis spectrophotometric analysis
[33] = Cytotoxicity against human L02 cells assessed as cell viability at 50 uM measured after 72 hrs by MTT assay relative to control; format: cell-based; conditions: read-out: Activity
[34] = Drug metabolism in human liver microsomes assessed as metabolite formation by UPLC-MS/MS analysis; format: ADME, Microsome
[35] = Disaggregation of Copper-induced amyloid beta (1 to 42) (unknown origin) preformed fibrils at 25 uM by ThT fluorescence assay relative to control
[36] = Inhibition of copper-induced amyloid beta (1 to 42) (unknown origin) aggregation measured after 24 hrs by TEM analysis
[37] = Disaggregation of Copper-induced amyloid beta (1 to 42) (unknown origin) preformed fibrils measured after 48 hrs by TEM analysis
[38] = Inhibition of copper-induced amyloid beta (1 to 42) (unknown origin) aggregation at 25 uM by ThT fluorescence assay relative to control

Row | SMILES | pIC50 (Acetylcholinesterase [12]) | Activity [13] | pIC50 (Butyrylcholinesterase) | inhibition [14] | also measured
1 | CCN(C)C(=O)Oc1cccc([C@H](C)N(C)C)c1 [RIVASTIGMINE] | – | – | – | – | Activity (Mus musculus [1]): inactive; Activity (Acetylcholinesterase [2]): 81.4%; Activity (Mus musculus [3]): 64.6%; Activity (Cholinesterase [4]): 43.2%; Activity (Cholinesterase [5]): 43.2%; Activity (Cholinesterase [6]): 58.3%
2 | COc1cc2c(cc1OC)C(=O)C(CC1CCN(Cc3ccccc3)CC1)C2 (stereo not given) [DONEPEZIL] | – | – | – | – | Activity (Cholinesterase [7]): 49.6%; Activity (Danio rerio [8]): 6361 mm; Efficacy (Danio rerio [9]): 55%; Efficacy (Danio rerio [10]): 66%; Activity (Cholinesterase [5]): 60.3%; Activity (Danio rerio [11]): 1.91 millimeter/sec
3 | O=C(Oc1ccc(-c2cc(=O)c3c(OC(=O)N4CCOCC4)cc(OC(=O)N4CCOCC4)cc3o2)cc1)N1CCOCC1 | 4.99 | 0.2 equiv | 4.62 | 31.2% | –
4 | O=c1cc(-c2ccc(O)cc2)oc2cc(O)cc(O)c12 [APIGENIN] | < 3.30 | 5.2 equiv | < 3.30 | – | Papp at 100 ug/ml [15]: 1.68 ×10⁻⁶ cm/s
5 | Cc1c(C)c2c(c(C)c1O)CCC(C)(C(=O)O)O2 (stereo not given) [TROLOX] | – | – | – | – | Activity (PC-12 [16]): Active; Activity (PC-12 [17]): 68.8%
6 | CCN(C)C(=O)Oc1ccc(-c2cc(=O)c3c(OC(=O)N(C)CC)cc(OC(=O)N(C)CC)cc3o2)cc1 | 5.29 | 0.1 equiv | 4.79 | 35.1% | viability at 10 µM (L02): 62.7%; inhibition [18]: Active; viability at 72 h, 25 µM [19]: 89.8%; Activity (PC-12 [20]): Non-Toxic; Activity [21]: Active; pIC50 (Acetylcholinesterase [22]): 5.04; Drug metabolism [23]: Metabolite_Detected; Activity [24]: 40.6%; Papp at 100 ug/ml [15]: 19.2 ×10⁻⁶ cm/s; viability at 72 h, 12.5 µM [25]: 98.5%; viability at 72 h, 6.25 µM [26]: 98%; Drug metabolism [27]: Metabolite_Detected; Activity [28]: inactive; pIC50 (Cholinesterase [29]): 4.71; Activity [30]: inactive; Activity [31]: inactive; Activity [32]: inactive; viability at 72 h, 50 µM [33]: 69.2%; Drug metabolism [34]: Metabolite_Detected
7 | O=C(Oc1ccc(-c2cc(=O)c3c(O)cc(OC(=O)N4CCOCC4)cc3o2)cc1)N1CCOCC1 | 4.94 | 1.1 equiv | 4.73 | 71.5% | –
8 | CCN(CC)C(=O)Oc1ccc(-c2cc(=O)c3c(O)cc(OC(=O)N(CC)CC)cc3o2)cc1 | 5.11 | 1.2 equiv | 4.79 | 77.8% | –
9 | CN(C)C(=O)Oc1ccc(-c2cc(=O)c3c(O)cc(OC(=O)N(C)C)cc3o2)cc1 | 5.04 | 1.1 equiv | 4.63 | 79.2% | –
10 | CON(C)C(=O)Oc1ccc(-c2cc(=O)c3c(O)cc(OC(=O)N(C)OC)cc3o2)cc1 | 5.17 | 1.1 equiv | 4.76 | 76.8% | pIC50 (Acetylcholinesterase [22]): 4.99; pIC50 (Cholinesterase [29]): 4.65
11 | CON(C)C(=O)Oc1ccc(-c2cc(=O)c3c(OC(=O)N(C)OC)cc(OC(=O)N(C)OC)cc3o2)cc1 | 5.22 | 0.2 equiv | 4.74 | 36% | pIC50 (Acetylcholinesterase [22]): 4.90; pIC50 (Cholinesterase [29]): 4.61
12 | CN(C)C(=O)Oc1ccc(-c2cc(=O)c3c(OC(=O)N(C)C)cc(OC(=O)N(C)C)cc3o2)cc1 | 5.08 | 0.2 equiv | 4.64 | 38.3% | –
13 | O=C(Oc1ccc(-c2cc(=O)c3c(O)cc(OC(=O)N(c4ccccc4)c4ccccc4)cc3o2)cc1)N(c1ccccc1)c1ccccc1 | 4.50 | 1 equiv | 4.42 | 70.9% | –
14 | O=C(Oc1ccc(-c2cc(=O)c3c(O)cc(OC(=O)N4CCCC4)cc3o2)cc1)N1CCCC1 | 4.86 | 1.2 equiv | 4.57 | 73.7% | –
15 | COc1cc(/C=C/C(=O)CC(=O)/C=C/c2ccc(O)c(OC)c2)ccc1O | – | – | – | – | Activity [35]: 56.1%; inhibition [36]: Active; Activity [37]: Active; inhibition [38]: 53.6%
